Values of other authors, collected in patent publication US10029116B2, “Method for the treatment of acne” (DUSA PHARMACEUTICALS, INC., priority 2012, dated 2018).

Tests used:
protoporphyrin IX = settings: mouse skin
[1] = test system: protoporphyrin IX in acne lesions

Structure (SMILES): NCC(=O)CCC(=O)O [ALA, aminolevulinic acid]
- time for protoporphyrin levels to return to near pretreatment baseline (protoporphyrin IX): about 18 hours
- time to peak protoporphyrin IX concentration (protoporphyrin IX): about six
- time by which the ability of light to excite protoporphyrin IX in acne lesions disappeared ([1]; no occlusive covering): ≤ 24 h
- persistence of the ability of light to excite protoporphyrin IX in skin having acne lesions ([1]; occlusive covering placed over the skin): ≤ 24 h
